We go through 7 compounds from patent US9187471B2, “Pyrido [4,3-b] indole and pyrido [3,4-b] indole derivatives and methods of use” (Medivation Technologies, Inc., priority 2010, dated 2015).

Structures are written as SMILES. Where two headings read alike, the source gives them in different places.

Assay [1] deals with T1, human recombinant histamine H1 receptor (Homo sapiens, UniProt P35367).
T1 construct: expressed in transfected cells; host or cells: CHO-K1
Kind of assay: Histamine H1 radioligand binding ([3H]Pyrilamine). The settings on record: read-out: Histamine H1 Binding (1 μM), percent inhibition of specific binding; compound at 1 μM; 1.2 nM [3H]Pyrilamine. As for the experimental part:
To evaluate in radioligand binding assays the activity of compounds of the invention, human recombinant histamine H1 receptor expressed in Chinese hamster ovary (CHO) K1 cells (De Backer, M. et al, Biochem. Biophys. Res. Comm. 197(3):1601, 1993) in a modified Tris-HCl buffer (50 mM Tris-HCl, pH 7.4, 2 mM MgCl2, 100 mM NaCl, 250 mM Sucrose) was used. […] Non-specific binding was estimated in the presence of 1 μM Pyrilamine. Receptor proteins were filtered and washed, the filters were then counted to determine [^3H]Pyrilamine specifically bound. […] Biochemical assay results are presented as the percent inhibition of specific binding in Table 2.

Assay [2] concerns the target T2, rat adrenergic α1A receptor (Rattus norvegicus, UniProt P43140).
T2 construct: rat adrenergic α1A receptor obtained from Wistar Rat submaxillary glands; from tissue; host or cells: Wistar rat submaxillary glands
T2 sequence (P43140 1-466): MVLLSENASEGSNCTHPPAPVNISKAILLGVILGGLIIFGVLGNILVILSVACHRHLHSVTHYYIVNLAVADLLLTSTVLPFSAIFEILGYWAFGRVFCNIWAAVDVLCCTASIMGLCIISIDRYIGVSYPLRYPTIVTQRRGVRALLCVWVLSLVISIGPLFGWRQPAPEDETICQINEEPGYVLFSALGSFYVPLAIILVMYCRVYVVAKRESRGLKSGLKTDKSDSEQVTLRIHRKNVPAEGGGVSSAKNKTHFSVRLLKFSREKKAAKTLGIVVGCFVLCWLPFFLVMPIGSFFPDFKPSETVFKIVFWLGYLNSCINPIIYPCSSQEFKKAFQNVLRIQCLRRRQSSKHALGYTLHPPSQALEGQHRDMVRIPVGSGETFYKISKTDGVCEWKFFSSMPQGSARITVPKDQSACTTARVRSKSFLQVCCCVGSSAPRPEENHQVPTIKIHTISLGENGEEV
Kind of assay: Adrenergic α1A radioligand binding ([3H]Prazosin). The settings on record: read-out: Adrenergic (0.1 μM) a1A, percent inhibition of specific binding; compound at 0.1 μM; 0.25 nM [3H]Prazosin. The method, then: To evaluate in radioligand binding assays the activity of compounds of the invention, rat adrenergic α1A receptor obtained from Wistar Rat submaxillary glands (Michel, A. et al, Br. J. Pharmacol. 98:883, 1989) in a modified Tris-HCl buffer (50 mM Tris-HCl buffer, pH 7.4, 0.5 mM EDTA) was used. Compounds of the invention were incubated with 0.25 nM [^3H]Prazosin for 60 min at 25° C. Non-specific binding was estimated in the presence of 10 μM phentolamine Receptor proteins were filtered and washed, the filters were then counted to determine [^3H]Prazosin specifically bound. […] Compounds of the invention were tested in this biochemical assay and percent inhibition of specific binding was determined.

The target of assay [3] is T3, human recombinant adrenergic α2C receptor (Homo sapiens, UniProt P18825).
T3 construct: expressed in transfected cells; host or cells: insect Sf9 cells
T3 sequence (P18825 1-462): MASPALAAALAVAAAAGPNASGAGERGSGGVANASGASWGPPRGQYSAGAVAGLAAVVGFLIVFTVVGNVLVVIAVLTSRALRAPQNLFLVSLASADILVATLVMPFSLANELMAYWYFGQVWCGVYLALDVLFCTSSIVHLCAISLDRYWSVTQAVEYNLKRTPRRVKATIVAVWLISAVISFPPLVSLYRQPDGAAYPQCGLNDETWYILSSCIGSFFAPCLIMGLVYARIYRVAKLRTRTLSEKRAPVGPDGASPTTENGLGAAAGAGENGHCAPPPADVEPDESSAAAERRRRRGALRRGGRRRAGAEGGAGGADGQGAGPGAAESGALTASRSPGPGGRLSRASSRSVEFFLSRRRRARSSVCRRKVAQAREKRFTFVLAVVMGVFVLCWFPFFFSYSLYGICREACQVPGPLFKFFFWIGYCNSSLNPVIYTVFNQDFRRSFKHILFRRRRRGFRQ
Kind of assay: Adrenergic α2C radioligand binding ([3H]MK-912). The note with it: read-out: Adrenergic (0.1 μM) a2C, percent inhibition of specific binding; compound at 0.1 μM; 1 nM [3H]MK-912. As for the experimental part: To evaluate in radioligand binding assays the activity of compounds of the invention, human recombinant adrenergic α2C receptor expressed in insect Sf9 cells (Uhlen, S. et al, J. Pharmacol. Exp. Ther. 271:1558, 1994) in a modified Tris-HCl buffer (50 mM Tris-HCl, pH 7.4, 12.5 mM MgCl2, 2 mM EDTA) was used. Compounds of the invention were incubated with 1 nM [^3H]MK-912 for 60 min at 25° C. Non-specific binding was estimated in the presence of 10 μM WB-4101. Receptor proteins were filtered and washed, the filters were then counted to determine [^3H]MK-912 specifically bound. […] Compounds of the invention were tested in this biochemical assay and percent inhibition of specific binding was determined.

Assay [4] addresses T4, human recombinant dopamine D2L receptor (Homo sapiens, UniProt P14416).
T4 construct: expressed in transfected cells; host or cells: CHO
Kind of assay: Dopamine D2L radioligand binding ([3H]Spiperone). The note with it: 0.16 nM [3H]Spiperone; for inhibition at 1 µM: read-out: Dopamine D2L (1 μM), percent inhibition of specific binding, compound at 1 μM. The method, then: Non-specific binding was estimated in the presence of 10 μM Haloperidol. Receptor proteins were filtered and washed, the filters were then counted to determine [^3H]Spiperone specifically bound.

The target in assay [5] is T5, human recombinant serotonin (5-Hydroxytryptamine) 5-HT2A receptor (Homo sapiens, UniProt P28223).
T5 construct: expressed in transfected cells; host or cells: CHO-K1
In words: Serotonin 5-HT2A radioligand binding ([3H]Ketanserin). The settings on record: read-out: Inhibition of ligand binding, Serotonin 5-HT2A (percent inhibition of specific binding). The method, then:
Compounds of the invention were incubated with 0.5 nM [^3H]Ketanserin for 60 min at 25° C. Non-specific binding was estimated in the presence of 1 μM Mianserin. Receptor proteins were filtered and washed, the filters were then counted to determine [^3H]Ketanserin specifically bound.

For assay [6], the target named is T6, human recombinant serotonin (5-Hydroxytryptamine) 5-HT2C receptor (Homo sapiens, UniProt P28335).
T6 construct: expressed in transfected cells; host or cells: CHO-K1
T6 sequence (P28335 33-458): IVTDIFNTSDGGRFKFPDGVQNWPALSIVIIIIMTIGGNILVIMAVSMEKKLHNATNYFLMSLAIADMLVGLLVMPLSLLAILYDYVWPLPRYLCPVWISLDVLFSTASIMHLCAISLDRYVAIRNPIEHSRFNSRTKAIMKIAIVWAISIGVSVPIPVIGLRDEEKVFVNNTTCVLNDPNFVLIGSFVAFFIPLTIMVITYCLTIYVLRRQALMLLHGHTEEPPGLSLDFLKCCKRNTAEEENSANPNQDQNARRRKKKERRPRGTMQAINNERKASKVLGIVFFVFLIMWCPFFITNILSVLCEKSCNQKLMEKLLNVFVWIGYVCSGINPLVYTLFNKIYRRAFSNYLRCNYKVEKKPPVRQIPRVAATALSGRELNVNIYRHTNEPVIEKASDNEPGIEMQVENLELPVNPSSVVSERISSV
Kind of assay: Serotonin 5-HT2C radioligand binding ([3H]Mesulergine). The note with it: compound at 0.1 μM; read-out: Inhibition of ligand binding, Serotonin 5-HT2C (percent inhibition of specific binding). The method, then: Compounds of the invention were incubated with 1 nM [^3H]Mesulergine for 60 min at 25° C. Non-specific binding was estimated in the presence of 1 μM Mianserin. Receptor proteins were filtered and washed, the filters were then counted to determine [^3H]Mesulergine specifically bound.

The target of assay [7] is T7, human recombinant serotonin (5-Hydroxytryptamine) 5-HT6 receptor (Homo sapiens, UniProt P50406).
T7 construct: expressed in transfected cells; host or cells: HeLa
Kind of assay: Serotonin 5-HT6 radioligand binding ([3H]LSD). The note with it: compound at 0.1 μM; for inhibition at 0.1 µM: read-out: Inhibition of ligand binding, Serotonin 5-HT6 (percent inhibition of specific binding). The text has this: Receptor proteins were filtered and washed, the filters were then counted to determine [3H]LSD specifically bound.

In assay [8] the target is T8, human recombinant serotonin (5-Hydroxytryptamine) 5-HT7 receptor (Homo sapiens, UniProt P34969).
T8 construct: expressed in transfected cells; host or cells: CHO
In words: Serotonin 5-HT7 radioligand binding ([3H]LSD). The note with it: compound at 0.1 μM; for inhibition at 0.1 µM: read-out: Inhibition of ligand binding, Serotonin 5-HT7 (percent inhibition of specific binding). As for the experimental part: Lysergic acid diethylamide (LSD) for 120 min. at 25° C. […] Receptor proteins were filtered and washed, the filters were then counted to determine [^3H]LSD specifically bound.

The target of assay [9] is T9, human recombinant serotonin (5-Hydroxytryptamine) 5-HT5A receptor (Homo sapiens, UniProt P47898).
T9 construct: expressed in transfected cells; host or cells: CHO-K1
In words: Serotonin 5-HT5A radioligand binding ([3H]LSD). The settings on record: compound at 0.1 μM. As for the experimental part:
Compounds of the invention were incubated with 1.7 nM [^3H]Lysergic acid diethylamide (LSD) for 60 min at 37° C. […] Receptor proteins were filtered and washed, the filters were counted to determine [^3H]LSD specifically bound.

T8 sequence (P34969 whole entry): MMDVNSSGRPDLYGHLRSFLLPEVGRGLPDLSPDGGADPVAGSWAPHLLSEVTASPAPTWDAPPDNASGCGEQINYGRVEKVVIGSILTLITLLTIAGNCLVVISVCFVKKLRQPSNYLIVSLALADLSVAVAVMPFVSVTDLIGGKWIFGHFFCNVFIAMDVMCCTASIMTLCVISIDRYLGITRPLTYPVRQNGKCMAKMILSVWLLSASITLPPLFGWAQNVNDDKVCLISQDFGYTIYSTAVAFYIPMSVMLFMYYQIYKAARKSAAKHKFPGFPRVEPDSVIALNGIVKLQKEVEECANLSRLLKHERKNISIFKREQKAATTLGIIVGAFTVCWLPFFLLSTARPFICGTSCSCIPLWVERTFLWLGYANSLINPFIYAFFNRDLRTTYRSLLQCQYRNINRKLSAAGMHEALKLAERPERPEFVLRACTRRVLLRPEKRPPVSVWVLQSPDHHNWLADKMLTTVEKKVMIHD
T1 sequence (P35367 whole entry): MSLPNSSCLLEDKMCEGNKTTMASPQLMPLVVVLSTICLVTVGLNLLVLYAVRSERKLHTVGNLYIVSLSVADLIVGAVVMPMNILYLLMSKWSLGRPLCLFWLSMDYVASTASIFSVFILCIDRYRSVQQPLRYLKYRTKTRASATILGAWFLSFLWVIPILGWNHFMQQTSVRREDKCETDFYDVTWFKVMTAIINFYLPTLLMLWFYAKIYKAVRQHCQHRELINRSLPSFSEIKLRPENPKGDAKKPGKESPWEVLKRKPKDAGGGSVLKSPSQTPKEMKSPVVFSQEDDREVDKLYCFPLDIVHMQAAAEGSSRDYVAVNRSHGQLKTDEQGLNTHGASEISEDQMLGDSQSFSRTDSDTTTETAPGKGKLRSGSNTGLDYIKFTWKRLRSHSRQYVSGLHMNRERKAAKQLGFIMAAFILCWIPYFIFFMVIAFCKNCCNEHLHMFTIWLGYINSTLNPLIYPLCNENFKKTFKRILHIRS
T5 sequence (P28223 whole entry): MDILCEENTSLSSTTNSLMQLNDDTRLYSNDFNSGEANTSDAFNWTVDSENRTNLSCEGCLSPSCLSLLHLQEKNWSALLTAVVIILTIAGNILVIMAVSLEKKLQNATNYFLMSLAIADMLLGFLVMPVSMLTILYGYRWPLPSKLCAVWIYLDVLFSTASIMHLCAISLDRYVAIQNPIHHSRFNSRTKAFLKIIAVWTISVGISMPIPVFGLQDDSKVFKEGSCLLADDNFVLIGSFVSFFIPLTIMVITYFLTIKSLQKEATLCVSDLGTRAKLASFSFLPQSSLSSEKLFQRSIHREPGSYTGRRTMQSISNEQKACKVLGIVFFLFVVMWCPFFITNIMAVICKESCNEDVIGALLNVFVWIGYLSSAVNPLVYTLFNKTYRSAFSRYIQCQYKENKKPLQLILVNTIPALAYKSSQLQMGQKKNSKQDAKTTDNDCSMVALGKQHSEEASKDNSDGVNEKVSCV
T4 sequence (P14416 whole entry): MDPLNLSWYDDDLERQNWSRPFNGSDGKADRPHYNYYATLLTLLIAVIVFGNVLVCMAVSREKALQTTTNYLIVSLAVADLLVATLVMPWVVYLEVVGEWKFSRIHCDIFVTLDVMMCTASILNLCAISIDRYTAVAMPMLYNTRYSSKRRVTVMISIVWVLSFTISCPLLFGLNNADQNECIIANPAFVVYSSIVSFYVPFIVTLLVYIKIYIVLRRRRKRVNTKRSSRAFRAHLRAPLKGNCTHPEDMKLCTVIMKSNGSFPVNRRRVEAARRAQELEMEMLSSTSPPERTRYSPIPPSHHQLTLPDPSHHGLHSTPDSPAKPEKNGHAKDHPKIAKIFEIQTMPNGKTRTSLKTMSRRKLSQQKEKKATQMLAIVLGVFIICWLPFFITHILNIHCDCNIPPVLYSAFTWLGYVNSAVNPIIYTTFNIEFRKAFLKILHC
T7 sequence (P50406 whole entry): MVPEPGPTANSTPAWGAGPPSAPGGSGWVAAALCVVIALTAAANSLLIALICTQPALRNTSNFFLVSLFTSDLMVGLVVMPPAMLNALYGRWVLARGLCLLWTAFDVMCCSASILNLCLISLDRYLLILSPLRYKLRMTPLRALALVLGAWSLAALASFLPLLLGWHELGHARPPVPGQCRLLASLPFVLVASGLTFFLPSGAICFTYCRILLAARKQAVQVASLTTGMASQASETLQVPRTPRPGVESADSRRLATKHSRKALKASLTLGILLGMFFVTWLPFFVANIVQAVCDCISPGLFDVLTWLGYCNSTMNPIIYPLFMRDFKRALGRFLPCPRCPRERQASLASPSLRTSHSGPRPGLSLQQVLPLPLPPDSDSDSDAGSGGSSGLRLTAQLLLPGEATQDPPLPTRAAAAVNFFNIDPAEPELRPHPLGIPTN
T9 sequence (P47898 whole entry): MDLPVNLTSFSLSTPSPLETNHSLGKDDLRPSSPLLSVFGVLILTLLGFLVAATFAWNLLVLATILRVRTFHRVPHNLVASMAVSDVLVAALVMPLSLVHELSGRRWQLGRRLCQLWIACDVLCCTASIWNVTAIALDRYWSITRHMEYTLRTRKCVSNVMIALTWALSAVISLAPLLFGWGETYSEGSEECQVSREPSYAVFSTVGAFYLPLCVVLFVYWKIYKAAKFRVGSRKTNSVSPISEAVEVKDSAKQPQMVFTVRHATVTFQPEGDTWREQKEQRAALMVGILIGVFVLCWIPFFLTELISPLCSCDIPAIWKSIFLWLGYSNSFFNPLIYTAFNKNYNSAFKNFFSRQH

One may read the inhibition as the change of the read-out against control, counted positive when it falls. Regarding `Cc1ccc2c(c1)c1c(n2-c2ccccc2-c2ccc(F)cc2)CCN(C)C1` [Compound 10, 5-(4′-fluorobiphenyl-2-yl)-2,8-dimethyl-2,3,4,5-tetrahydro-1H-pyrido[4,3-b]indole], the results for the inhibition at 1 µM in assay [1] and in [4] were 82% and 26%, respectively. Also, the inhibition at 0.1 µM in [2] is 59%; in [3], 67%; in assay [5] (compound at 0.1 μM) it was 93%; in [6], 94%; in [7], 57%; in [8], 73%.
Take `Cc1ccc2c(c1)c1c(n2-c2ccsc2)CCN(C)C1` [Compound 14, 2,8-dimethyl-5-thiophen-3-yl-2,3,4,5-tetrahydro-1H-pyrido[4,3-b]indole]: the inhibition at 1 µM in assay [1] is 86%; in assay [4], 50%. The inhibition at 0.1 µM in assay [2] stood at 30%; in assay [3], 4%; in [5] (compound at 0.1 μM), 97%; in assay [6], 95%; in [7], 82%; in assay [8] it was 61%.
As to `Cc1ccc2c(c1)c1c(n2-c2cccs2)CCN(C)C1` [Compound 16, 2,8-dimethyl-5-thiophen-2-yl-2,3,4,5-tetrahydro-1H-pyrido[4,3-b]indole], the inhibition at 1 µM was found to be 86% in assay [1] and 49% in assay [4]. In addition, the inhibition at 0.1 µM in assay [2] came out at 7%; in [3] it was 17%; in assay [5] (compound at 0.1 μM), 94%; in assay [6], 89%; in [7], 74%; in assay [8], 62%.
Regarding `Cc1ccc2c(c1)c1c(n2-c2ccoc2)CCN(C)C1` [Compound 15, 5-furan-3-yl-2,8-dimethyl-2,3,4,5-tetrahydro-1H-pyrido[4,3-b]indole], the results for the inhibition at 1 µM in assay [1] and in [4] were 80% and 19%, respectively. Also, the inhibition at 0.1 µM in [2] was 28%; in assay [3], 7%; in assay [5] (compound at 0.1 μM), 72%; in [6], 77%; in assay [7], 51%; in [8] it was 57%.
For the compound `Cc1ccc2c(c1)c1c(n2-c2ccccc2-c2ccc(O)nc2)CCN(C)C1` [Compound No. 80, 5-(2-(2,8-dimethyl-3,4-dihydro-1H-pyrido[4,3-b]indol-5(2H)-yl)phenyl)pyridin-2-ol], the results for the inhibition at 1 µM in assay [1] and in assay [4] were 28% and 2%, respectively. Moreover, the inhibition at 0.1 µM in [2] is 15%; in assay [3], -6%; in [5], 28%; in assay [6] it was 11%. In assay [9], the “Inhibition of ligand binding, Serotonin 5-HT5A (percent inhibition of specific binding)” value was determined as 25%. In addition, in [7], the “Inhibition of ligand binding, Serotonin 5-HT6 (percent inhibition of specific binding)” value was −1%. The “Inhibition of ligand binding, Serotonin 5-HT7 (percent inhibition of specific binding)” value in assay [8] was 41%.
For the compound `Cc1cc(C)c2c(c1)c1c(n2-c2cscc2-c2ccncc2)CCN(C)C1` [Compound No. 149], in assay [1], the inhibition at 1 µM is -5%. Besides, the inhibition at 0.1 µM in [2] is 14%; in assay [3], 2%; in assay [4] (read-out: Dopamine D2L (0.1 μM), percent inhibition of specific binding, compound at 0.1 μM), 5%; in assay [5] (compound at 0.1 μM) it was 45%; in assay [9] (read-out: Inhibition of ligand binding, Serotonin 5-HT5A (percent inhibition of specific binding)), -13%; in [7] it was 93%. In addition, in assay [8], the inhibition at 0.1 µM came to 11%.
As for `Cc1ccc2c(c1)c1c(n2-c2ccccc2-c2ccncc2)CCN(C)C1` [Compound 5, 2,8-dimethyl-5-(2-pyridin-4-yl-phenyl)-2,3,4,5-tetrahydro-1H-pyrido[4,3-b]indole], the inhibition at 1 µM is 38% in assay [1] and 2% in [4]. The inhibition at 0.1 µM was 24% in assay [2]; 11% in assay [3]; 83% in [5] (compound at 0.1 μM); 81% in [6]; 26% in [7]; 64% in [8].
